Data from patent US9126993B2, “Glucosylceramide synthase inhibitors” (GENZYME CORPORATION, priority 2011, dated 2015).

System: Fabry mice
Test: Substrate reduction therapy in Fabry mouse model: Gb3 and lyso-Gb3 levels
Assay type: in vivo
Conditions: male and female Fabry mice treated 4 months from ~8 months old; GZ 452 60 and 120 mg/kg/day, GZ 161 20 mg/kg/day
Procedure: In the following experiments, mice dosed with GCS inhibitors at either ˜60 mg/kg/day of (S)-Quinuclidin-3-yl(2-(2-(4-fluorophenyl)thiazol-4-yl)propan-2-yl)carbamate (S)-2-hydroxysuccinate salt (hereinafter “GZ 452”) or ˜300 mg/kg/day of (1R,2R)-Octanoic acid[2-(2′,3′-dihydro-benzo[1,4] dioxin-6′-yl)-2-hydroxy-1-pyrrolidin-1-ylmethyl-ethyl]-amide-L-tartaric acid salt (hereinafter “GZ 638”) as a component of the pelleted food diet provided ad libitum. Lipid analysis was by ESI/MS as described in Marshall et al., PLoS ONE 5:e15033 (2010). As discussed in further detail below, treatment started when the mice were 3, 8 or 12 months of age to test the efficacy at different disease severities. Blood and urine was collected monthly and periodic tissue harvests provided materials to evaluate efficacy of the therapy (Gb3 and lyso-Gb3 levels). […] As further discussed below, the efficacy of SMT was affected by the age of the mice at the start of treatment. Generally, the older the mouse, the higher the levels of Gb3 stored and thus a longer period of treatment was required in order to affect similar therapeutic benefit (see FIG. 4). The experiments and results are described further below.
In this experiment, Fabry mice were treated with GCS inhibitors in their diet for 4 months starting at 8 months old. […] Age-matched wild-type levels (WT) are also shown. […]

CC(C)(NC(=O)OC1CN2CCC1CC2)c1cccc(-c2ccc(F)cc2)c1 (stereo not shown) [GZ 161, Quinuclidin-3-yl(2-(4′-fluoro-[1,1′-biphenyl]-3-yl)propan-2-yl)carbamate]
Gb3 in kidney tissue relative to untreated controls: significantly reduced the amount of Gb3
